# Legend:
# Assay in all cases: relative viability (nuclei count vs DMSO), 5 days (fraction); higher = more cells survive
# RERF-LC-KJ = tested on: RERF-LC-KJ
# How it was run: (§1)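 The day after seeding in 1536-well plates, lung cancer cell lines were treated by pin tool with a single drug, or with a fixed anchor-drug dose together with five library-drug doses (not always all listed) in √10 steps. After 5 days, a combined fix-and-stain solution (final 0.05% Triton X-100, 1% formaldehyde, 1 ug/ml Hoechst) was added. Nuclei counted on 4× images gave relative viability as treated counts over vehicle counts, reported as the median of duplicate plates.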
# NCI-H460 = tested on: NCI-H460
# How it was run: as §1
# NCI-H1355 = tested on: NCI-H1355
# How it was run: as §1
# LU99A = tested on: LU99A
# How it was run: as §1
# NCI-H1793 = tested on: NCI-H1793
# How it was run: as §1
# EKVX = tested on: EKVX
# How it was run: as §1
# NCI-H650 = tested on: NCI-H650
# How it was run: as §1
# SW 1573 = tested on: SW 1573
# How it was run: as §1
# LOU-NH91 = tested on: LOU-NH91
# How it was run: as §1
# NCI-H1993 = tested on: NCI-H1993
# How it was run: as §1
# NCI-H2347 = tested on: NCI-H2347
# How it was run: as §1
# NCI-H23 = tested on: NCI-H23
# How it was run: as §1
compound,measurement,setting,value
O=C(O)CCCCC(CCSCc1ccccc1)SCc1ccccc1 (stereo unspecified) [CPI-613] + O=C(c1cc(Cc2n[nH]c(=O)c3ccccc23)ccc1F)N1CCN(C(=O)C2CC2)CC1 [Olaparib] (partner 8 µM),relative viability,RERF-LC-KJ; first compound 5 µM,0.979
same,relative viability,RERF-LC-KJ; first compound 15.81 µM,0.83
same,relative viability,RERF-LC-KJ; first compound 50 µM,0.804
same,relative viability,RERF-LC-KJ; first compound 158.11 µM,0.273
same,relative viability,RERF-LC-KJ; first compound 500 µM,0.133
same,relative viability,NCI-H460; first compound 5 µM,0.37
same,relative viability,NCI-H460; first compound 15.81 µM,0.321
same,relative viability,NCI-H460; first compound 50 µM,0.373
same,relative viability,NCI-H460; first compound 158.11 µM,0.274
same,relative viability,NCI-H460; first compound 500 µM,0.361
same,relative viability,NCI-H1355; first compound 5 µM,0.728
same,relative viability,NCI-H1355; first compound 15.81 µM,0.706
same,relative viability,NCI-H1355; first compound 50 µM,0.714
same,relative viability,NCI-H1355; first compound 158.11 µM,0.376
same,relative viability,NCI-H1355; first compound 500 µM,0.0737
same,relative viability,LU99A; first compound 5 µM,0.26
same,relative viability,LU99A; first compound 15.81 µM,0.237
same,relative viability,LU99A; first compound 50 µM,0.242
same,relative viability,LU99A; first compound 158.11 µM,0.127
same,relative viability,LU99A; first compound 500 µM,0.161
same,relative viability,NCI-H1793; first compound 5 µM,0.75
same,relative viability,NCI-H1793; first compound 15.81 µM,0.789
same,relative viability,NCI-H1793; first compound 50 µM,0.856
same,relative viability,NCI-H1793; first compound 158.11 µM,0.146
same,relative viability,NCI-H1793; first compound 500 µM,0.0648
same,relative viability,EKVX; first compound 5 µM,0.756
same,relative viability,EKVX; first compound 15.81 µM,0.862
same,relative viability,EKVX; first compound 50 µM,0.856
same,relative viability,EKVX; first compound 500 µM,0.802
same,relative viability,NCI-H650; first compound 5 µM,0.404
same,relative viability,NCI-H650; first compound 15.81 µM,0.393
same,relative viability,NCI-H650; first compound 50 µM,0.366
same,relative viability,NCI-H650; first compound 158.11 µM,0.339
same,relative viability,NCI-H650; first compound 500 µM,0.359
same,relative viability,SW 1573; first compound 5 µM,0.442
same,relative viability,SW 1573; first compound 15.81 µM,0.395
same,relative viability,SW 1573; first compound 50 µM,0.406
same,relative viability,SW 1573; first compound 158.11 µM,0.135
same,relative viability,SW 1573; first compound 500 µM,0.071
same,relative viability,LOU-NH91; first compound 5 µM,0.883
same,relative viability,LOU-NH91; first compound 15.81 µM,0.86
same,relative viability,LOU-NH91; first compound 50 µM,0.867
same,relative viability,LOU-NH91; first compound 158.11 µM,0.442
same,relative viability,LOU-NH91; first compound 500 µM,0.533
same,relative viability,NCI-H1993; first compound 5 µM,1.15
same,relative viability,NCI-H1993; first compound 15.81 µM,0.918
same,relative viability,NCI-H1993; first compound 50 µM,0.908
same,relative viability,NCI-H1993; first compound 158.11 µM,0.6
same,relative viability,NCI-H1993; first compound 500 µM,0.421
same,relative viability,NCI-H2347; first compound 5 µM,0.535
same,relative viability,NCI-H2347; first compound 15.81 µM,0.505
same,relative viability,NCI-H2347; first compound 50 µM,0.562
same,relative viability,NCI-H2347; first compound 158.11 µM,0.495
same,relative viability,NCI-H2347; first compound 500 µM,0.349
same,relative viability,NCI-H23; first compound 5 µM,0.33
same,relative viability,NCI-H23; first compound 15.81 µM,0.28

# Reference: the supplement of paper PMC10307832
